What was measured:
[1] = target: CDK1/cyclin B (Homo sapiens, UniProt P06493); experiment: Kinase assay, radioactive phosphate incorporation, CDK1/cyclin B; format: biochemical; settings: 100 μM ATP, 30° C.; read-out: Kinase inhibition IC50 CDK1/cyclin B
Method in brief: (§1)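 Recombinant kinase complexes (2-4 μg active enzyme) were incubated at 30° C with polypeptide substrates in buffer of 25 mM β-glycerophosphate, 20 mM MOPS, 5 mM EGTA, 1 mM DTT, 1 mM […], pH 7.4. Reactions began with 15 mM MgCl2 plus 100 μM ATP spiked with [γ-32P]-ATP. Substrate-incorporated radioactivity was counted after filter capture.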

[2] = target: CDK2/cyclin A (Homo sapiens, UniProt P24941); experiment: Kinase assay, radioactive phosphate incorporation, CDK2/cyclin A; format: biochemical; settings: 100 μM ATP, 30° C.; read-out: Kinase inhibition IC50 CDK2/cyclin A
Method in brief: as §1

[3] = target: CDK2/cyclin E (Homo sapiens, UniProt P24941); experiment: Kinase assay, radioactive phosphate incorporation, CDK2/cyclin E; format: biochemical; settings: 100 μM ATP, 30° C.; read-out: Kinase inhibition IC50 CDK2/cyclin E
Method in brief: as §1

[4] = target: CDK4/cyclin D1 (Homo sapiens, UniProt P11802); experiment: Kinase assay, radioactive phosphate incorporation, CDK4/cyclin D1; format: biochemical; settings: 100 μM ATP, 30° C.; read-out: Kinase inhibition IC50 CDK4/cyclin D1
Chain of CDK4/cyclin D1 (P11802 whole entry, species assumed): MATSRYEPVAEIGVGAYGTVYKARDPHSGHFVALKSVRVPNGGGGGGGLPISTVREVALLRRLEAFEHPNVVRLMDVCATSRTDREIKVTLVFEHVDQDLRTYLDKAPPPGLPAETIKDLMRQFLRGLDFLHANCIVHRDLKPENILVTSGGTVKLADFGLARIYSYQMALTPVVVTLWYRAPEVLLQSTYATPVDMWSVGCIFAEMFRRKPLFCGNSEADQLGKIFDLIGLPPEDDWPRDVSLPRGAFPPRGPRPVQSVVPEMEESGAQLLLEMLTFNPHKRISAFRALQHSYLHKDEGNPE
Chain of CDK4/cyclin D1 (P24385 whole entry partner, species assumed): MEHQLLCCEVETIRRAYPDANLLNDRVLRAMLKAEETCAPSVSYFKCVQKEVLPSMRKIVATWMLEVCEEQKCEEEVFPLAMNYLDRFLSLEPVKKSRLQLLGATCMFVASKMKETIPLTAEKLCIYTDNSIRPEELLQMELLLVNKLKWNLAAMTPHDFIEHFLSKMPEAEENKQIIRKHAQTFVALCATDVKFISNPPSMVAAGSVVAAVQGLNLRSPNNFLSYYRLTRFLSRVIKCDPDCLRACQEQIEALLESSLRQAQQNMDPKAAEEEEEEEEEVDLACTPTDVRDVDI
Method in brief: as §1

[5] = target: CDK7/cyclin H (Homo sapiens, UniProt P50613); experiment: Kinase assay, radioactive phosphate incorporation, CDK7/cyclin H; format: biochemical; settings: 100 μM ATP, 30° C.; read-out: Kinase inhibition IC50 CDK7/cyclin H
Chain of CDK7/cyclin H (P50613 whole entry, species assumed): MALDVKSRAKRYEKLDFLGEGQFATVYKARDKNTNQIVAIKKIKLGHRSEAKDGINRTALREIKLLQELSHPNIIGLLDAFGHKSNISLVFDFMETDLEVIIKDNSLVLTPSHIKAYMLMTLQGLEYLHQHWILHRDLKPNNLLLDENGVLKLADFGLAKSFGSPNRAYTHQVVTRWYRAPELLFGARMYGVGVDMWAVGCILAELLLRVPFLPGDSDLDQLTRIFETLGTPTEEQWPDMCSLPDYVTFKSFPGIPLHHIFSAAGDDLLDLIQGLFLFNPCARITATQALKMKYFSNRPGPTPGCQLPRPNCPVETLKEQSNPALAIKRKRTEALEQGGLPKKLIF
Chain of CDK7/cyclin H (P51946 whole entry partner, species assumed): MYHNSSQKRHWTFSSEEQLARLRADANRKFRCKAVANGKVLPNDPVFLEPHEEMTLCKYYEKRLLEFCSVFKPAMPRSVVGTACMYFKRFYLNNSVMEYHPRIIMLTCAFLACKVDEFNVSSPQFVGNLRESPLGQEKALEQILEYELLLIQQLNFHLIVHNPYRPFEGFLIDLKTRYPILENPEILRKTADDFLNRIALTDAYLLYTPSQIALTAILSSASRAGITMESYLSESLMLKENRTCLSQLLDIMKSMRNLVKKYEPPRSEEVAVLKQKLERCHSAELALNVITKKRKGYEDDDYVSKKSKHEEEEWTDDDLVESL
Method in brief: as §1

[6] = target: CDK9/cyclin T1 (Homo sapiens, UniProt P50750); experiment: Kinase assay, radioactive phosphate incorporation, CDK9/cyclin T1; format: biochemical; settings: 100 μM ATP, 30° C.; read-out: Kinase inhibition IC50 CDK9/cyclin T1
Chain of CDK9/cyclin T1 (P50750 whole entry, species assumed): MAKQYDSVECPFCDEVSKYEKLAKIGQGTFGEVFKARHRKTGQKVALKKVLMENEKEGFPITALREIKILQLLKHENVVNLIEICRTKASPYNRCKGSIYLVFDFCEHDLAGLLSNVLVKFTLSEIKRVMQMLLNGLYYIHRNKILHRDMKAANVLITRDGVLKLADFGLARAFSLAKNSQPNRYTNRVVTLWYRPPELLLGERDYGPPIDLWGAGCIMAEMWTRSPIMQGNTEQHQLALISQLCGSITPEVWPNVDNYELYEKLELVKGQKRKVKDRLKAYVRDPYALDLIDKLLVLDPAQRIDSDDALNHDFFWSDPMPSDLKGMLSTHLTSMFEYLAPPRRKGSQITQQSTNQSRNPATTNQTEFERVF
Chain of CDK9/cyclin T1 (O60563 whole entry partner, species assumed): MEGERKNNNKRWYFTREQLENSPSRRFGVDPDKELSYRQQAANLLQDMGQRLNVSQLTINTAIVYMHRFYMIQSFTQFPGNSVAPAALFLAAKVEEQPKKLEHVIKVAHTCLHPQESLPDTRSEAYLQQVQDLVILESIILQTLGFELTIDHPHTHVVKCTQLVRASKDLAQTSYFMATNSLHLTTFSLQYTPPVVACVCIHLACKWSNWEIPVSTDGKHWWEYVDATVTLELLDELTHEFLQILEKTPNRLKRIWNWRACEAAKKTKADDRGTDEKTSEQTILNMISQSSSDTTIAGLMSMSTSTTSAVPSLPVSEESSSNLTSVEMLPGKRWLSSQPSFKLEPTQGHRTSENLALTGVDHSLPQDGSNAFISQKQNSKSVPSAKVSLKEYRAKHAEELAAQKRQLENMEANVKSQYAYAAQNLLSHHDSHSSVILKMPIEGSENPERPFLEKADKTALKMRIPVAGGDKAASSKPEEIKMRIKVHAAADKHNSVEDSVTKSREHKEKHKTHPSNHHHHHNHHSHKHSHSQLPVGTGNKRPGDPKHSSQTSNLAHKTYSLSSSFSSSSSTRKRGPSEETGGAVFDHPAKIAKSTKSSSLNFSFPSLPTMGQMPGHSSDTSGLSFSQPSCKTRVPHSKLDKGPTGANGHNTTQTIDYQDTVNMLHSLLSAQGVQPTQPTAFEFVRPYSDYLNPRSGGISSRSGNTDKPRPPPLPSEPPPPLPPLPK
Method in brief: as §1

[7] = target: GSK3β (Homo sapiens, UniProt P49841); experiment: Kinase assay, radioactive phosphate incorporation, GSK3β; format: biochemical; settings: 100 μM ATP, 30° C.; read-out: Kinase inhibition IC50 GSK3β
Chain of GSK3β (P49841 whole entry, species assumed): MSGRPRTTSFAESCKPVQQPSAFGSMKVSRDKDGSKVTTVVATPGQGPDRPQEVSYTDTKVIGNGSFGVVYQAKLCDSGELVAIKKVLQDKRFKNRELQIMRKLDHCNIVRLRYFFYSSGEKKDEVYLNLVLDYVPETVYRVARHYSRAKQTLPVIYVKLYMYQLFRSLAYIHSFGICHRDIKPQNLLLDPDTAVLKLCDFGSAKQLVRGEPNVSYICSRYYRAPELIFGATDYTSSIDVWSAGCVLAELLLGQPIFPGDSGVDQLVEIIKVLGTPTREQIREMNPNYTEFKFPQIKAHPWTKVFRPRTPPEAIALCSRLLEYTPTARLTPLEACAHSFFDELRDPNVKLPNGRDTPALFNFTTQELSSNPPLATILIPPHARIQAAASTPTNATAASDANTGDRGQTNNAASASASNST
Method in brief: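 Steps: enzyme (2-4 μg) plus substrate in pH 7.4 buffer with DTT and vanadate; start with 100 μM ATP/15 mM MgCl2 containing [γ-32P]-ATP; incubate at 30° C; stop on ice; filter, wash with 75 mM orthophosphoric acid; scintillation count. Compounds diluted from DMSO stocks into 10% DMSO buffer.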

[8] = target: T1, Aurora-A (Homo sapiens, UniProt O14965); experiment: Kinase assay, radioactive phosphate incorporation, Aurora-A; format: biochemical; settings: 100 μM ATP, 30° C.; read-out: Kinase inhibition IC50 Aurora-A
T1 sequence (O14965 1-403): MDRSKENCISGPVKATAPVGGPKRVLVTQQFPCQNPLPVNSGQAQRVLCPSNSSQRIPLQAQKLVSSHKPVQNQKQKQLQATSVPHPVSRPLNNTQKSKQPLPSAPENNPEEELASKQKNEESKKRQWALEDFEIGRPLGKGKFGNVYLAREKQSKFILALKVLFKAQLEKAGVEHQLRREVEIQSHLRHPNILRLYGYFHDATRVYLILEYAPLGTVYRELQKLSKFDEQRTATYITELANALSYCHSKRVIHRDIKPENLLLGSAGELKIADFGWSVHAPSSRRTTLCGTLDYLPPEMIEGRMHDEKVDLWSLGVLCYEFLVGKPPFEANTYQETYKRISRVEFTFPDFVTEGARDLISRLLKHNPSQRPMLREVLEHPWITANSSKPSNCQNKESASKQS
Protocol: (§2) The compounds from the examples above were investigated for their ability to inhibit the enzymatic activity of various protein kinases. This was achieved by measurement of incorporation of radioactive phosphate from ATP into appropriate polypeptide substrates. Recombinant protein kinases and kinase complexes were produced or obtained commercially. Assays were performed using 96-well plates and appropriate assay buffers (typically 25 mM β-glycerophosphate, 20 mM MOPS, 5 MM EGTA, 1 mM DTT, 1 mM Na3VO3, pH 7.4), into which were added 2-4 μg of active enzyme with appropriate substrates. The reactions were initiated by addition of Mg/ATP mix (15 mM MgCl2+100 μM ATP with 30-50 kBq per well of [γ-^32P]-ATP) and mixtures incubated as required at 30° C. Reactions were stopped on ice, followed by filtration through p81 filterplates or GF/C filterplates (Whatman Polyfiltronics, Kent, UK). After washing 3 times with 75 mM aq orthophosphoric acid, plates were dried, scintillant added and incorporated radioactivity measured in a scintillation counter (TopCount, Packard Instruments, Pangbourne, Berks, UK). Compounds for kinase assay were made up as 10 mM stocks in DMSO and diluted into 10% DMSO in assay buffer.

[9] = system: A549; experiment: 72-h MTT cytotoxicity assay, A549; format: cell-based; settings: Homo sapiens, read-out: 72-h MTT IC50 A549, A549 cell line
Method in brief: (§3)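 The read-out is MTT reduction: 4 h dark incubation with MTT from a 5 mg/mL stock, then dye solubilised in DMSO. This followed 72 h at 37° C exposure to a 1/3 dilution series of compound in triplicate. Wells were seeded according to doubling time and rested overnight before dosing.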

[10] = system: HT29; experiment: 72-h MTT cytotoxicity assay, HT29; format: cell-based; settings: Homo sapiens, HT-29, read-out: 72-h MTT IC50 HT29, HT29 cell line
Method in brief: as §3

[11] = system: Saos-2; experiment: 72-h MTT cytotoxicity assay, Saos-2; format: cell-based; settings: Homo sapiens, read-out: 72-h MTT IC50 Saos-2, Saos-2 cell line
Method in brief: as §3

[12] = system: transformed human cell lines (A549, HT29, Saos-2); experiment: 72-h MTT cytotoxicity assay, average of cell lines; format: cell-based; settings: read-out: 72-h MTT IC50 Average, average of A549, HT29, Saos-2
Method in brief: as §3

[13] = target: PLK-1 (Homo sapiens, UniProt P53350); experiment: Kinase assay, radioactive phosphate incorporation, PLK-1; format: biochemical; settings: 100 μM ATP, 30° C.; read-out: Kinase inhibition IC50 PLK-1
Chain of PLK-1 (P53350 whole entry, species assumed): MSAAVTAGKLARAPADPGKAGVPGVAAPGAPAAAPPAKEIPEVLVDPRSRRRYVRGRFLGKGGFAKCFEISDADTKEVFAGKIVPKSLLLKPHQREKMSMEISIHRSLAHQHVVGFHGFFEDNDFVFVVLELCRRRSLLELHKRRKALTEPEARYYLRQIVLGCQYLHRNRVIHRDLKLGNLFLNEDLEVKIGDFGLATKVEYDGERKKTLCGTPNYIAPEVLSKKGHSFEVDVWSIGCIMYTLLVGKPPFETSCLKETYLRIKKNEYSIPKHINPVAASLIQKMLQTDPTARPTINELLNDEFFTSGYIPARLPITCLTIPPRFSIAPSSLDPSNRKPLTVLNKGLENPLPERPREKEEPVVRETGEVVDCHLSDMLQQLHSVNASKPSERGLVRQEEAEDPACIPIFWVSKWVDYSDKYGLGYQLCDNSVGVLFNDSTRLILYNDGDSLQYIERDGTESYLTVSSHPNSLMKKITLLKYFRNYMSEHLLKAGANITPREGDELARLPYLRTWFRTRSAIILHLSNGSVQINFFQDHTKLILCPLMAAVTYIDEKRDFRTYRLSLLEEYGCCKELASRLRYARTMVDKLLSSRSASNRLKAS
Protocol: as §2

Chain of CDK1/cyclin B (P06493 whole entry, species assumed): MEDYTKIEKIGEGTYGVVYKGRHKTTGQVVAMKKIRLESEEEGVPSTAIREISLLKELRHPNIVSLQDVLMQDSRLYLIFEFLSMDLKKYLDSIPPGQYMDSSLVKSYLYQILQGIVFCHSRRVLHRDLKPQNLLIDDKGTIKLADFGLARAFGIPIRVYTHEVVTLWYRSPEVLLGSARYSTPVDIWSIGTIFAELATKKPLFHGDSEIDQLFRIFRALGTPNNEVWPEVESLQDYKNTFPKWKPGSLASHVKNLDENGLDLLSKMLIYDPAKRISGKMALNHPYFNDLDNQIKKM
Chain of CDK1/cyclin B (P14635 whole entry partner, species assumed): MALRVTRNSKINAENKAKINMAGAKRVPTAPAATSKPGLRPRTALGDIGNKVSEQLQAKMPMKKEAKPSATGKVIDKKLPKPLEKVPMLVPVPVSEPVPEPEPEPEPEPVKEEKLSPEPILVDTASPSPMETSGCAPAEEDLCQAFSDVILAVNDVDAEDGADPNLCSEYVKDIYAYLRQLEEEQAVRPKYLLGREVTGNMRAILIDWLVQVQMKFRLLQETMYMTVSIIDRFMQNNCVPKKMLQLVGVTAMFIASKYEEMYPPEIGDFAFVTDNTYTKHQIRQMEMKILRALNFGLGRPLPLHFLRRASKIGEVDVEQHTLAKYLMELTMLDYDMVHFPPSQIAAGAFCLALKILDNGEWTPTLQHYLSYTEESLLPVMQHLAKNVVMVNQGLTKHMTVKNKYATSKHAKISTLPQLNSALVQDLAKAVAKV

Structure (SMILES) | IC50 [1] | IC50 [2] | IC50 [3] | IC50 [4] | IC50 [5] | IC50 [6] | IC50 [7] | IC50 [8] | IC50 [9] | IC50 [10] | IC50 [11] | IC50 [12] | IC50 [13]
CN(C)Cc1cccc(-c2ccnc(Nc3ccc(N4CCOCC4)cc3)n2)c1 [Compound 82, [4-(3-Dimethylaminomethyl-phenyl)-pyrimidin-2-yl]-(4-morpholin-4-yl-phenyl)-amine] | 1.1 µM | 1.5 µM | 0.66 µM | 4.6 µM | 2.9 µM | 0.33 µM | 2.3 µM | 0.4 µM | 6.2 µM | 4.5 µM | 6.6 µM | 5.8 ± 1.1 µM | –
CC(=O)N(CC(C)C)c1cccc(-c2ccnc(Nc3ccc(O)cc3)n2)c1 [Compound 13, N-{3-[2-(4-Hydroxy-phenylamino)-pyrimidin-4-yl]-phenyl}-N-isobutyl-acetamide] | – | – | 0.55 µM | – | – | – | – | – | – | – | – | – | 14.5 µM
CC(=O)Nc1cccc(-c2ccnc(Nc3ccc(O)cc3)n2)c1 [Compound 11, N-{3-[2-(4-Hydroxy-phenylamino)-pyrimidin-4-yl]-phenyl}-acetamide] | – | – | 0.25 µM | – | – | – | – | – | 8.3 µM | 7.5 µM | 7.1 µM | 7.6 ± 0.6 µM | 6.9 µM
CNc1cccc(-c2ccnc(Nc3ccc(O)cc3)n2)c1 [Compound 14, 4-[4-(3-Methylamino-phenyl)-pyrimidin-2-ylamino]-phenol] | – | – | 0.045 µM | – | – | – | – | – | – | – | – | – | 13.7 µM
Clc1ccc(Nc2nccc(-c3cccc(Cl)c3)n2)cc1 [Compound 16, (4-Chloro-phenyl)-[4-(3-chloro-phenyl)-pyrimidin-2-yl]-amine] | – | – | – | – | – | – | – | – | – | – | – | – | 8.7 µM
NC(=O)C1CCCN(Cc2cccc(-c3ccnc(Nc4cccc([N+](=O)[O-])c4)n3)c2)C1 (centres unmarked) [Compound 99, 1-{3-[2-(3-Nitro-phenylamino)-pyrimidin-4-yl]-benzyl}-piperidine-3-carboxylic acid amide] | 1.2 µM | 1.7 µM | 0.2 µM | 3.8 µM | 0.18 µM | 0.001 µM | 0.04 µM | 1 µM | 3 µM | 2.6 µM | 4.1 µM | 3.2 ± 0.8 µM | –
CCN(C(C)=O)c1cccc(-c2ccnc(Nc3ccc(O)cc3)n2)c1 [Compound 10, N-Ethyl-N-{3-[2-(4-hydroxy-phenylamino)-pyrimidin-4-yl]-phenyl}-acetamide] | – | – | 0.16 µM | – | – | – | – | – | 8 µM | 9.7 µM | 5.4 µM | 7.7 ± 2.2 µM | 4.8 µM
Nc1cccc(-c2ccnc(Nc3ccc(O)cc3)n2)c1 [Compound 15, 4-[4-(3-Amino-phenyl)-pyrimidin-2-ylamino]-phenol] | – | – | 0.36 µM | – | – | – | – | – | – | – | – | – | 7.8 µM
O=[N+]([O-])c1ccc(Nc2nccc(-c3cccc([N+](=O)[O-])c3)n2)cc1 [Compound 2, (4-Nitro-phenyl)-[4-(3-nitro-phenyl)-pyrimidin-2-yl]-amine] | – | – | – | – | – | – | – | – | – | – | – | – | 6.5 µM
